Assay results: US4031235A, “Insecticidal substituted acetate compounds” (Sumitomo Chemical Company, Limited, priority 1972, dated 1977)
Values after ≈ are worked out from the molar mass of the structure shown. Where two headings read alike, the source gives them in different places.

Experiments:
[1] = tested on: adult mosquitoes (Culex pipiens); test: Knock-down of adult mosquitoes by 0.2% oil preparation (Experimental Example 4); type: in vivo; conditions: read-out: mosquitoes knocked down
Method: (§1) 0.2% oil preparation was prepared from each of the compounds (1), (2), (8), (14), (22), (25), (26), (27), (51), (62), (73), (82), (86), (88), to (90), (92), (94), (96), (111), (119), (121), (165), (175), (180), (184), (185), (195), (200), (201), and (208) and allethrin as a control using deodorized kerosene.

oriental house flies [2] = test: Activity on knock-down against oriental house flies (Experimental Example 5); type: in vivo; conditions: 0.2% oil preparation, 0.7 ml, 1.5 Kg/cm^2, (70 cm)^3 glass box
Method: as §1
20 oriental house flies per group were released in a (70 cm)^3 volume glass box and sprayed with each of the oil preparations prepared in Experimental Example 4 from the compounds of Table 3 below and allethrin in an amount of 0.7 ml under a pressure of 1.5 Kg/cm^2.

[3] = tested on: Larvae of Mosquito (Culex pipiens); test: Insecticidal activity on larvae of mosquito (Experimental Example 2); type: in vivo; conditions: 24 h, read-out: LC50 (50% lethal concentration)
Method: An emulsifiable concentrate was prepared by blending each of the compounds (1) to (300) of the present invention, xylol and Sorpol SM-200 (trade name; manufactured by Toho Chemical Co., Ltd.) in a proportion of 25%, 50% and 25% (by weight), respectively. 20 to 25 day-old rice plants after seeding were grown in pots and sprayed with each 300-fold dilute solution of the emulsifiable concentrates thus prepared and a 300-fold dilute solution of carbaryl 30% wettable powder diluted with water as a control commercial agent in an amount of 10 ml/pot in each case and then the pots were covered by a cylindrical metal net. 15 small brown planthoppers (Delphacodes striatella Fallen) per group were released in each of the pots treated with carbaryl wettable powder, and compound (1) to (21) and (102) to (110), while 15 green rice leafhopper (Nephotettix bipuntatus cincticeps Uhler) per group were released in each of the pots treated with the carbaryl wettable powder and compounds (22) to (101) and (111) to (300).
Of the emulsifiable concentrates prepared in Experimental Example 1, each of those prepared from the compounds of Table 1 below was diluted with water to each of test concentrations and a 200 ml portion thereof was added to a 300 ml volume beaker. 30 larvae of mosquito per group were released in each of the beaker and allowed to stand for 1 day. Survival was observed and a LC50 (50% lethal concentration) was determined by calculating a percent killing in each case. As a control, lindane emulsifiable concentrate was used.

Oral toxicity to mice = conditions: mouse, in vivo
oriental house flies [4] = test: Potentiation of insecticidal activity by addition of piperonyl butoxide, topical application (Experimental Example 6); type: in vivo; conditions: piperonyl butoxide 5 times active ingredient; acetone solution on thoracic dorsal plate
Method: To each of the compounds (22), (51), (62), (63), (82), (86), (125), (150), (160), (176), (177), (178), (184), (185), (191), (195), (200), (201), (204), (208), (210), (212) and (226) was added piperonyl butoxide in an amount of 5 times that of the active ingredient, respectively to prepare an acetone solution having a given concentration. Each of the thus prepared acetone solutions was applied onto a thoracic dosal plate of oriental house flies using a microshringe to observe a synergestic effect on insecticidal activity by piperonyl butoxide.

[5] = 0.2% oil preparation, 0.7 ml, 1.5 Kg/cm^2, (70 Cm)^3 glass box

Structure (SMILES) | KT50 (50% knock-down time) (oriental house flies [2]) | LC50 [3] | pest or weed control at 0.2 % [1, 5] | Potentiation magnification of insecticidal activity by the addition of piperonyl butoxide (oriental house flies [4]) | other results
C=CCC1=C(C)C(OC(=O)C2C(C=C(C)C)C2(C)C)CC1=O (stereo not drawn) [allethrin, reference compound] | 186 s | – | – | – | pest or weed control at 0.2 % [1]: > 80%
CCC(C(=O)OCc1cccc(Oc2ccccc2)c1)c1ccccc1 (stereo not drawn) [compound 2, 3'-Phenoxybenzyl-α-ethylphenylacetate] | – | 3.4 ng/mL (≈ 9.81 nM) | > 80% | – | LD50 (Oral toxicity to mice): > 1000 mg/kg
CCC(C(=O)OC(C#N)c1cccc(Oc2ccccc2)c1)c1ccccc1 (stereo not drawn) [compound 14, 3'-Phenoxy-α'-cyanobenzyl-α-ethylphenylacetate] | – | 2.6 ng/mL (≈ 7 nM) | > 80% | – | –
CCC(C(=O)OCc1cccc(Oc2ccccc2)c1)c1ccc(OC(C)=O)cc1 (stereo not drawn) [compound 25, 3'-Phenoxybenzyl-α-ethyl-4-acetoxyphenylacetate] | – | – | > 80% | – | –
CCC(C(=O)OCc1coc(Cc2ccccc2)c1)c1ccc([S+](C)[O-])cc1 (stereo not drawn) [compound 26, 5'-Benzyl-3'-furylmethyl-α-ethyl-4-methylsulfoxyphenylacetate] | – | – | > 80% | – | –
CCC(C(=O)OCN1C(=O)C2=C(CCCC2)C1=O)c1c(C)cc(C)cc1C (stereo not drawn) [compound 27, 3',4',5',6'-Tetrahydrophthalimidomethyl-2-ethyl-2,4,6-trimethylphenylacetate] | – | – | > 80% | – | –
C#CCc1ccc(C(C#C)OC(=O)C(c2ccc(OC)cc2)C(C)C)o1 (stereo not drawn) [compound 51, 5'-Propargyl-2'-(α'-ethynyl)-furfuryl-α-isopropyl-4-methoxyphenylacetate] | 104 s | – | > 80% | 7.2 | –
COc1ccc(C(C(=O)OCN2C(=O)C3=C(CCCC3)C2=O)C(C)C)cc1 (stereo not drawn) [compound 73, 3',4',5',6'-Tetrahydrophthalimidomethyl-α-isopropyl-p-methoxyphenylacetate] | – | – | > 80% | – | –
CCC(C(=O)OCc1cccc(Oc2ccccc2)c1)c1ccc(OC)cc1 (stereo not drawn) [compound 80, 3'-Phenoxybenzyl-α-ethyl-4-methoxyphenylacetate] | – | – | – | – | LD50 (Oral toxicity to mice): > 2000 mg/kg
COc1ccc(C(C(=O)OCc2ccc(Cc3ccccc3)s2)C(C)C)cc1 (stereo not drawn) [compound 86, 5'-Benzyl-2'-thenylmethyl-α-isopropyl-4-methoxyphenylacetate] | – | – | > 80% | 4.5 | –
COc1ccc(C(C(=O)OCc2cc3c(o2)CCCC3)C(C)C)cc1 (stereo not drawn) [compound 88, 4',5'-Tetramethylenefurfuryl-α-isopropyl-4-methoxyphenylacetate] | 147 s | – | > 80% | – | –
COc1ccc(C(C(=O)OCc2cccc(Cc3ccccc3)c2)C(C)C)cc1 (stereo not drawn) [compound 89, 3'-Benzylbenzyl-α-isopropyl-4-methoxyphenylacetate] | 155 s | – | – | – | –
C=C(C)C(C(=O)OCN1C(=O)C2=C(CCCC2)C1=O)c1ccc(OC)cc1 (stereo not drawn) [compound 90, 3',4',5',6'-Tetrahydrophthalimidomethyl-α-isopropenyl-4-methoxyphenylacetate] | – | – | > 80% | – | –
C=C(C)C(C(=O)OCc1cccc(Cc2ccccc2)c1)c1ccc(OC)cc1 (stereo not drawn) [compound 92, 3'-Benzylbenzyl-α-isopropenyl-4-methoxyphenylacetate] | – | – | > 80% | – | –
C#CCc1ccc(C(C#C)OC(=O)C(CC)c2ccc(OC)cc2)o1 (stereo not drawn) [compound 94, 5'-Propargyl-α'-ethynylfurfuryl-α-ethyl-4-methoxyphenylacetate] | – | – | > 80% | – | –
C=C(C)C(C(=O)OCc1cccc(Oc2ccccc2)c1)c1ccc(OC)cc1C (stereo not drawn) [compound 96, 3'-Phenoxybenzyl-α-isopropenyl-2-methyl-4-methoxyphenylacetate] | 92 s | – | > 80% | – | –
Cc1ccc(C(C(=O)OCc2cccc(Oc3ccccc3)c2)C(C)C)cc1 (stereo not drawn) [compound 108, 3'-Phenoxybenzyl-α-isopropyl-4-methylphenylacetate] | – | – | – | – | LD50 (Oral toxicity to mice): > 1000 mg/kg
C=C(C)C(C(=O)OCc1cccc(Oc2ccccc2)c1)c1ccc(Br)cc1 (stereo not drawn) [compound 111, 3'-Phenoxybenzyl-α-isopropenyl-4-bromophenylacetate] | 138 s | 2.5 ng/mL (≈ 5.72 nM) | > 80% | – | –
C=C(C)C(C(=O)OCc1cccc(Oc2ccccc2)c1)c1ccc(F)cc1 (stereo not drawn) [compound 121, 3'-Phenoxybenzyl-α-isopropenyl-4-fluorophenylacetate] | 130 s | 3.7 ng/mL (≈ 9.83 nM) | > 80% | – | –

Structure (SMILES) | KT50 (50% knock-down time) (oriental house flies [2]) | LC50 [3] | pest or weed control at 0.2 % [1, 5] | Potentiation magnification of insecticidal activity by the addition of piperonyl butoxide (oriental house flies [4]) | other results
C#CCc1cc(C)c(COC(=O)C(c2ccc(Cl)cc2)C(C)C)c(C)c1 (stereo not drawn) [compound 129] | – | – | – | – | LD50 (Oral toxicity to mice): > 1000 mg/kg
CC(C)C(C(=O)OCN1C(=O)c2ccccc2C1=O)c1ccc(Cl)cc1 (stereo not drawn) [compound 130] | – | – | – | – | LD50 (Oral toxicity to mice): > 1000 mg/kg
Cc1ccc(C(C(=O)OCc2ccc(Cc3ccco3)s2)C(C)C)cc1 (stereo not drawn) [compound 145] | – | 3.9 ng/mL (≈ 10.6 nM) | – | – | LD50 (Oral toxicity to mice): > 1000 mg/kg
C#CCc1ccc(C(C#C)OC(=O)C(c2ccc(C)cc2)C(C)C)o1 (stereo not drawn) [compound 160] | – | – | – | 7.2 | –
CC(C)C(C(=O)OC(C#N)c1cccc(Oc2ccccc2)c1)c1ccc(F)cc1 (stereo not drawn) [compound 165] | 145 s | 1.2 ng/mL (≈ 2.97 nM) | > 80% | – | –
CCC(C(=O)OCc1coc(Cc2ccco2)c1)c1ccc(Br)cc1 (stereo not drawn) [compound 175] | 152 s | – | > 80% | – | –
CCC(C(=O)OCc1cccc(Oc2ccccc2)c1)c1ccc(Cl)cc1 (stereo not drawn) [compound 177] | – | 7.4 ng/mL (≈ 19.4 nM) | – | 5.8 | –
CCC(C(=O)OCc1cccc(Oc2ccccc2)c1)c1ccc(Br)cc1 (stereo not drawn) [compound 178] | – | – | – | 5.4 | –
CCC(C(=O)OCc1coc(Oc2ccccc2)c1)c1ccc(Cl)cc1 (stereo not drawn) [compound 180] | 157 s | 7.2 ng/mL (≈ 19.4 nM) | > 80% | – | –
CCC(C(=O)OCc1coc(Cc2ccccc2)c1)c1ccc(F)cc1 (stereo not drawn) [compound 185] | 137 s | – | > 80% | 5.0 | –
CCC(C(=O)OC1C=C(Cc2ccccc2)C(=O)C1)c1ccc(F)cc1 (stereo not drawn) [compound 191] | – | – | – | 4.3 | –
Cc1ccc(C(C(=O)OCc2coc(Oc3ccccc3)c2)C(C)C)cc1 (stereo not drawn) [compound 195] | 140 s | – | > 80% | 5.7 | –
C#CCc1ccc(C(C#C)OC(=O)C(c2ccc(C)cc2)C(C)C)o1 (stereo not drawn) [compound 200] | 114 s | – | > 80% | 7.5 | –
C#CCc1ccc(C(C#C)OC(=O)C(c2ccc(Cl)cc2)C(C)C)o1 (stereo not drawn) [compound 201] | 105 s | – | > 80% | 7.0 | –
CC(C)C(C(=O)OCc1coc(Cc2ccccc2)c1)c1cccc(Cl)c1 (stereo not drawn) [compound 204] | – | 7.5 ng/mL (≈ 19.6 nM) | – | 4.7 | –
CC(C)C(C(=O)OCc1coc(Cc2ccccc2)c1)c1ccc(F)cc1 (stereo not drawn) [compound 208] | 150 s | – | > 80% | 5.2 | –
CC(C)C(C(=O)OCc1cccc(Oc2ccccc2)c1)c1ccc(F)cc1 (stereo not drawn) [compound 210] | – | 3.5 ng/mL (≈ 9.25 nM) | – | 4.8 | –
CC(C)C(C(=O)OCc1coc(Cc2ccccc2)c1)c1ccc(Br)cc1 (stereo not drawn) [compound 212] | – | 3.7 ng/mL (≈ 8.66 nM) | – | 5.0 | –
Cc1ccc(C(C(=O)OCc2ccc(Cc3ccccc3)cc2)C(C)C)cc1 (stereo not drawn) [compound 226] | – | 13.5 ng/mL (≈ 36.2 nM) | – | 4.5 | –
